Measurements from patent US11612643B2, “Col14A1-derived tumor antigen polypeptide and use thereof” (Genoimmune Therapeutics Co., Ltd., priority 2016, dated 2023).

Columns and labels:
CD8+ T cells [1] = assay: ELISPOTs detection of IFN-gamma secretion by peptide-specific CD8+ T cells; format: cell-based, human; settings: for Conclusion (immunogenicity): ELISPOTs; for Number of spots in the wild-type peptide group: T cells activated by listed peptide + T2 loaded with wild-type peptide FMVDGSWSI, 20 h
Text: In this example, a ELISPOTs detection kit (Cat. No.: 3420-4AST-10, MABTECH) was used to verify the activation of an immune response of CD8+ T cells by the peptides of the present invention.
Principle of the ELISPOTs detection method is as follows: CD8+ T cells can specifically recognize the complex of HLA-A0201 and a peptide. The population of T cells recognizing the complex of the peptide and HLA-A0201 is varying, depending on the peptide sequence. Since T2 cells express HLA-A0201, CD8+ T cells can specifically recognize the T2 cells loaded with a peptide. After specific recognition of the complex of HLA-A0201 and the peptide, peptide-specific CD8+ T cells can be activated again to secrete IFN-gamma interferon. The IFN-gamma interferon secreted by the activated CD8+ T cells can be captured by antibodies on the ELISPOTs plate. Finally, the enzyme-conjugated antibody that recognizes IFN-gamma can degrade the substrate through the enzyme conjugated thereto and develop color, eventually producing spots. The number of spots represents the number of cells that are activated to secrete IFN-gamma interferon.
The cultured cells from Example 3 were added, along with T2 cells loaded with the mutant peptide […] of the present invention and the wild-type peptide […], respectively, into ELISPOTs plates, and cultured for 20 h, and then a ELISPOTs detection was performed (see the kit instruction). Finally, the spots produced by the ELISPOTs detection were counted.
The peptide was determined to have immunogenicity when the number of spots of the tested peptide/the number of spots of an unrelated peptide>2; that is, if the number of spots caused by the tested peptide is more than twice than that of an unrelated peptide, the tested peptide is determined to have immunogenicity.

T2 cells = assay: LDH release assay, killing of peptide-loaded T2 target cells by CD8+ T cells; format: cell-based, human; settings: T2 loaded with wild-type FMVDGSWSI, 4 h
Description: The cells cultured in Example 3 were co-cultured with T2 cells loaded with the mutant peptides of the present invention or the wild-type peptide or without a peptide. A maximum release well, a volume correction well, a medium control well, a spontaneous release well and control wells for example at different effector-to-target ratios (ratios of T cells to T2 cells) were set in this experiment. Three replicate wells were set for each group. After 4 h, 50 μl of the co-culture supernatant was taken out and added to 50 μl of LDH substrate mixture to catalyze the reaction of LDH substrate. Finally, the plates were read at a wavelength of 490 nm, with a reference wavelength of 680 nm, and the killing activity against target cells T2 was calculated based on the control wells.

CD8+ T cells [2] = assay: ELISPOTs detection of IFN-gamma secretion by peptide-specific CD8+ T cells; format: cell-based, human; settings: ratio of spot numbers; >2 immunogenic
HLA-A0201 = biological target: T1, HLA-A0201 (Homo sapiens, UniProt P04439, D140Y/D185E/D98H/E176V/E277Q/G131W/G231S/I119V/I121R/I166T/I218V/L300P/L318F/N151K/N90K/P208A/P217A/Q86G/Q94H/R138H/R169H/T345S); assay: Affinity verification of the peptides to T2 cells (flow cytometry, FITC anti-HLA-A0201); format: cell-based; settings: added peptide 100 μM, FI>1.5 high affinity for HLA-A0201, listed as wild-type peptide
T1 construct: T2 cells (a lymphocyte, tumor cell line, expressing HLA-A0201); host or cells: T2 cells (TAP-deficient T/B lymphocyte hybridoma, HLA-A2 positive)
Description: 10 μg/ml of each peptide as described above was added, and human β2 microglobulin (at a final concentration of 3 μg/ml) was added and cultured overnight in an incubator (37° C., 5% CO2). Two replicate wells were set up for each group.
Cells were collected by centrifugation of the cell culture at 200 g for 5 minutes. The collected cells were washed twice with PBS, and then directly incubated with FITC-conjugated anti-HLA-A0201 monoclonal antibody at 4° C. for 30 minutes. The mean fluorescence intensity (MFI) was then detected and analyzed by flow cytometer (BD FACSJazz™) and its software. The fluorescence index (FI) was calculated by using the following formula: FI=[MFIsample−MFIbackground]/MFIbackground;

[3] = effector-to-target ratio (10:1)

| Sequence | Conclusion (immunogenicity) (CD8+ T cells [1]) | Number of spots in the wild-type peptide group (CD8+ T cells [1]) | killing activity against target cells T2 (T2 cells; effector-to-target ratio (1:1)) | killing activity against target cells T2 (T2 cells; [3]) | Fold (tested/wild-type) (CD8+ T cells [2]) | FI (fluorescence index) (HLA-A0201) |
| --- | --- | --- | --- | --- | --- | --- |
| FLVDGFWSI | immunogenic | 28 | 2.65% | 5.53% | 11.21 |  |
| FLVDGFWSL | immunogenic | 30 | 3.13% | 6.33% | 10.26 |  |
| FLVDGFWSV | immunogenic | 31 | 3.26% | 6.01% | 9.71 |  |
| FMVDGFWSL | immunogenic | 37 | 3.12% | 4.91% | 8.86 |  |
| FMVDGFWSV | immunogenic | 41 | 3.37% | 5.63% | 7.87 |  |
| FMVDGSWSI [wild-type COL14A1 peptide used as comparator] |  |  |  |  |  | greater than 1.5 |
